Source: PMC13266999, “Designing Antibiotics with Inherent Resistance to Efflux as a Strategy to Revive Discovery against Multidrug-Resistant Pathogens” (Journal of Medicinal Chemistry, 2026)
Values after ≈ are worked out from the molar mass of the structure shown. Like-named read-outs stand apart in the source and are kept apart here.

Key:
[1] = reported values; cited from earlier work
A. baumannii strain AYE = assay: Time-kill assay; format: cell-based; conditions: 4 × MIC
Protocol: Time-kill assays were performed as defined previously.

Acinetobacter baumannii = assay: MIC (microbroth dilution); format: cell-based
Protocol: (§1) All bacteria were maintained on tryptic soy agar (TSA), except Streptococcus spp., which were maintained on Columbia agar plates containing 5% horse blood. All bacterial assays were carried out in tryptic soy broth (TSB), except for Streptococcus spp. which were grown in cation-adjusted Mueller Hinton broth containing 2.5% lysed horse blood. Bacteria were grown to stationary phase in liquid culture overnight, with shaking at 200 rpm, before being back diluted to the relevant starting concentration for each assay below. MICs were measured by the microbroth dilution method. […] Absorbance at OD600 was read on a CLARIOstar spectrophotometer (BMG Labtech) and the MIC was defined as the minimum concentration of compound where no visible growth was detected. The compounds were prepared as a DMSO stock and equivalent concentrations of DMSO had no effect on bacterial growth. MICs were also performed in the presence of the outer membrane permeator, polymyxin b nonapeptide (PMBN) following the same MIC method but with the following variation. The 2-fold dilution series of compound was prepared as above, then 50 μL of PMBN at a final concentration of 30 μg/mL was added to relevant wells, while 50 μL/well of blank media was added to the remaining wells. Bacteria were then added at 50 μL/well for a starting concentration as above. Thirty μg/mL of PMBN had no effect on bacterial growth. The MICs were read and defined as above. All animal procedures were performed by the contract research organization Pharmacology Discovery Services Taiwan in accordance with the Guide for the Care and Use of Laboratory Animals. The procedures were approved by the Institutional Ethics Committee of Pharmacology Discovery Services Taiwan, Ltd. (approval no. AB127662), in compliance with animal welfare legislation in Taiwan.

[2] = system: NorA overexpressing strain NCTC 13616; assay: Reserpine growth (efflux inhibition) assay; conditions: 0.5x MIC with vs without reserpine
Protocol: Statistical analyses were performed with GraphPad Prism V9.5.0. […] Unpaired t tests were used when comparing two samples in the gyrase assays.

E. coli = assay: MIC (microbroth dilution); format: cell-based; conditions: Escherichia coli
Protocol: as §1, with “All bacterial assays were carried out in tryptic soy broth (TSB), except for Streptococcus spp. which were grown in cation-adjusted Mueller Hinton broth containing 2.5% lysed horse blood.” left out, “The compounds were prepared as a DMSO stock and equivalent concentrations of DMSO had no effect on bacterial growth.” left out, “Thirty μg/mL of PMBN had no effect on bacterial growth.” left out

K. pneumoniae = assay: MIC (microbroth dilution); format: cell-based, Klebsiella pneumoniae; conditions: Klebsiella pneumoniae, read-out: MIC
Protocol: as §1, with “All bacterial assays were carried out in tryptic soy broth (TSB), except for Streptococcus spp. which were grown in cation-adjusted Mueller Hinton broth containing 2.5% lysed horse blood.” left out, “The compounds were prepared as a DMSO stock and equivalent concentrations of DMSO had no effect on bacterial growth.” left out, “Thirty μg/mL of PMBN had no effect on bacterial growth.” left out

S. aureus [3] = assay: MIC (microbroth dilution); format: cell-based, Staphylococcus aureus; conditions: for MIC: Staphylococcus aureus
Protocol: as §1, with “All bacterial assays were carried out in tryptic soy broth (TSB), except for Streptococcus spp. which were grown in cation-adjusted Mueller Hinton broth containing 2.5% lysed horse blood.” left out, “The compounds were prepared as a DMSO stock and equivalent concentrations of DMSO had no effect on bacterial growth.” left out, “Thirty μg/mL of PMBN had no effect on bacterial growth.” left out

S. aureus [4] = assay: Serial passaging, MIC of adapted strains; format: cell-based; conditions: Staphylococcus aureus
Protocol: MICs were performed on the first and 10th passage.

Question: Which plasma protein binding [1] does the source give for `Nc1nc(-n2cc(C(=O)O)c(=O)c3cc(F)c(N4CC(O)C4)c(Cl)c32)c(F)cc1F` [delafloxacin] here?
Answer: Its plasma protein binding is 84%.

Question: For `COc1c(N2CC[C@@H](Nc3ncccn3)C2)c(F)cc2c(=O)c(C(=O)O)cn(C3CC3)c12` [Compound 51, (R)-1-Cyclopropyl-6-fluoro-8-methoxy-4-oxo-7-(3-(pyrimidin-2-ylamino)pyrrolidin-1-yl)-1,4-dihydroquinoline-3-carboxylic acid], which time-kill profile (A. baumannii strain AYE) is on record?
Answer: The time-kill profile was “rapid bactericidal activity”.

Question: And the MIC (Acinetobacter baumannii; Acinetobacter baumannii, 86, oxa23)?
Answer: Its MIC is 16 µg/mL (≈ 36.4 µM).

Question: And the MIC (Acinetobacter baumannii; Acinetobacter baumannii, A601 colS)?
Answer: Its MIC is ≤ 0.03 µg/mL.

Question: And the MIC (Acinetobacter baumannii; Acinetobacter baumannii, ATCC17978, ATCC 17978, read-out: MIC)?
Answer: Its MIC is ≤ 0.125 µg/mL.

Question: And the MIC (Acinetobacter baumannii; Acinetobacter baumannii, BAA1709, BAA-1709, read-out: MIC)?
Answer: Its MIC is 0.06 µg/mL (≈ 0.137 µM).

Question: And the MIC (Acinetobacter baumannii; Acinetobacter baumannii, BAA1710, BAA-1710 (AYE), read-out: MIC)?
Answer: Its MIC is 4 µg/mL (≈ 9.1 µM).

Question: And the MIC (Acinetobacter baumannii; Acinetobacter baumannii, BAA2093, BAA-2093, read-out: MIC)?
Answer: The MIC was 0.03 to 0.06 µg/mL (≈ 0.0683 to 0.137 µM).

Question: What about the MIC (Acinetobacter baumannii; Acinetobacter baumannii, NCTC10303, NCTC 10303, read-out: MIC) of the same compound?
Answer: Its MIC is 0.06 µg/mL (≈ 0.137 µM).

Question: And the MIC (Acinetobacter baumannii; Acinetobacter baumannii, NCTC12156, NCTC 12156, read-out: MIC)?
Answer: Its MIC is 0.125 µg/mL (≈ 0.284 µM).

Question: And the MIC (Acinetobacter baumannii; Acinetobacter baumannii, NCTC13302, NCTC 13302, oxa24, read-out: MIC)?
Answer: The MIC was 4 µg/mL (≈ 9.1 µM).

Question: What about the MIC (Acinetobacter baumannii; Acinetobacter baumannii, NCTC13424, NCTC 13424, oxa23, read-out: MIC) of the same compound?
Answer: The MIC was > 32 µg/mL.

Question: And the MIC (Acinetobacter baumannii; Acinetobacter baumannii, T strain)?
Answer: The MIC was 8 µg/mL (≈ 18.2 µM).

Question: And the MIC (Acinetobacter baumannii; Acinetobacter baumannii, UKA1, oxa23, read-out: MIC)?
Answer: The MIC was 2 µg/mL (≈ 4.55 µM).

Question: What about the MIC (Acinetobacter baumannii; Acinetobacter baumannii, UKA2, Low resistance, read-out: MIC) of the same compound?
Answer: The MIC was 4 µg/mL (≈ 9.1 µM).

Question: And the MIC (Acinetobacter baumannii; Acinetobacter baumannii, UKA9, read-out: MIC)?
Answer: The MIC was 0.06 µg/mL (≈ 0.137 µM).

Question: What about the MIC (Acinetobacter baumannii; Acinetobacter baumannii, UKA12, oxa23, read-out: MIC) of the same compound?
Answer: The MIC was 2 µg/mL (≈ 4.55 µM).

Question: What about the MIC (Acinetobacter baumannii; Acinetobacter baumannii, UKA13, oxa23, read-out: MIC) of the same compound?
Answer: The MIC was 2 µg/mL (≈ 4.55 µM).

Question: And the MIC (Acinetobacter baumannii; Acinetobacter baumannii, UKA15, oxa23, read-out: MIC)?
Answer: Its MIC is 2 µg/mL (≈ 4.55 µM).

Question: And the MIC (Acinetobacter baumannii; Acinetobacter baumannii, UKA19, read-out: MIC)?
Answer: The MIC was 0.25 µg/mL (≈ 0.569 µM).

Question: And the MIC (Acinetobacter baumannii; Acinetobacter baumannii, W1, read-out: MIC)?
Answer: The MIC was 4 µg/mL (≈ 9.1 µM).

Question: And the “efflux liability in reserpine assay” value [2]?
Answer: The value was “minimal shift”.

Question: And the MIC (E. coli; 319238/UR)?
Answer: The MIC was 16 µg/mL (≈ 36.4 µM).

Question: And the MIC (E. coli; LEC006)?
Answer: The MIC was 0.25 µg/mL (≈ 0.569 µM).

Question: What about the MIC (E. coli; LEC007) of the same compound?
Answer: The MIC was 0.125 µg/mL (≈ 0.284 µM).

Question: What about the MIC (E. coli; LEC077) of the same compound?
Answer: The MIC was 4 µg/mL (≈ 9.1 µM).

Question: And the MIC (E. coli; LEC081)?
Answer: Its MIC is 2 µg/mL (≈ 4.55 µM).

Question: What about the MIC (E. coli; NCTC10418, NCTC 10418) of the same compound?
Answer: Its MIC is 0.125 µg/mL (≈ 0.284 µM).

Question: And the MIC (E. coli; NCTC11954, NCTC 11954)?
Answer: The MIC was 0.125 µg/mL (≈ 0.284 µM).

Question: What about the MIC (E. coli; NCTC12241, NCTC 12241) of the same compound?
Answer: The MIC was 0.06 µg/mL (≈ 0.137 µM).

Question: And the MIC (E. coli; NCTC12923, NCTC 12923)?
Answer: Its MIC is ≤ 0.125 µg/mL.

Question: What about the MIC (K. pneumoniae; M6) of the same compound?
Answer: Its MIC is 1 to 2 µg/mL (≈ 2.28 to 4.55 µM).

Question: And the MIC (K. pneumoniae; NCTC13368, NCTC 13368)?
Answer: The MIC was 4 µg/mL (≈ 9.1 µM).

Question: And the MIC (K. pneumoniae; TW3)?
Answer: Its MIC is 0.5 µg/mL (≈ 1.14 µM).

Question: What about the “fold more active than moxifloxacin” value (S. aureus [3]) of the same compound?
Answer: The value was 4–8 fold.

Question: And the MIC (S. aureus [3]; ATCC9144, ATCC 9144, read-out: MIC)?
Answer: Its MIC is ≤ 0.03 µg/mL.

Question: What about the MIC (S. aureus [3]; NCTC13277, NCTC 13277, read-out: MIC) of the same compound?
Answer: Its MIC is 0.125 to 0.25 µg/mL (≈ 0.284 to 0.569 µM).

Question: What about the MIC (S. aureus [3]; NCTC13616, NCTC 13616, read-out: MIC) of the same compound?
Answer: The MIC was 0.125 µg/mL (≈ 0.284 µM).

Question: What about the MIC (S. aureus [3]; SA-1199, read-out: MIC) of the same compound?
Answer: Its MIC is 0.004 µg/mL (≈ 0.0091 µM).

Question: What about the MIC (S. aureus [3]; SA-1199B (NorA-overexpressing)) of the same compound?
Answer: The MIC was 0.004 µg/mL (≈ 0.0091 µM).

Question: What about the MIC (S. aureus [4]; 1199B WT) of the same compound?
Answer: The MIC was 0.008 µg/mL.

Question: And the MIC (S. aureus [4]; 1199B adapted to 4 x MIC of Compound 7)?
Answer: The MIC was 0.008 µg/mL.

Question: What about the MIC (S. aureus [4]; 1199B adapted to 4 x MIC of Compound 46) of the same compound?
Answer: The MIC was 0.03 µg/mL.

Question: And the MIC (S. aureus [4]; 1199B adapted to 4 x MIC of Compound 50)?
Answer: The MIC was 0.125 µg/mL.

Question: And the MIC (S. aureus [4]; 1199B adapted to 4 x MIC of Compound 51)?
Answer: The MIC was 0.015 µg/mL.

Question: And the MIC (S. aureus [4]; 1199 WT)?
Answer: Its MIC is 0.004 µg/mL.

Question: And the MIC (S. aureus [4]; 1199 adapted to 4 x MIC of Compound 7)?
Answer: The MIC was ≤ 0.008 µg/mL.

Question: What about the MIC (S. aureus [4]; 1199 adapted to 4 x MIC of Compound 46) of the same compound?
Answer: Its MIC is ≤ 0.008 µg/mL.

Question: And the MIC (S. aureus [4]; 1199 adapted to 4 x MIC of Compound 50)?
Answer: Its MIC is 0.06 µg/mL.

Question: What about the MIC (S. aureus [4]; 1199 adapted to 4 x MIC of Compound 51) of the same compound?
Answer: Its MIC is 0.015 µg/mL.

Question: What about the MIC (S. aureus [4]; NCTC13616, NCTC 13616 WT) of the same compound?
Answer: Its MIC is 0.125 µg/mL.

Question: What about the MIC (S. aureus [4]; NCTC13616, NCTC 13616 adapted to 4 x MIC of Compound 7) of the same compound?
Answer: Its MIC is 0.25 µg/mL.

Question: And the MIC (S. aureus [4]; NCTC13616, NCTC 13616 adapted to 4 x MIC of Compound 46)?
Answer: Its MIC is 0.125 µg/mL.

Question: What about the MIC (S. aureus [4]; NCTC13616, NCTC 13616 adapted to 4 x MIC of Compound 50) of the same compound?
Answer: Its MIC is 0.25 µg/mL.

Question: What about the MIC (S. aureus [4]; NCTC13616, NCTC 13616 adapted to 4 x MIC of Compound 51) of the same compound?
Answer: The MIC was 0.5 µg/mL.
